In PMC10759609, “A novel PDPN antagonist peptide CY12-RP2 inhibits melanoma growth via Wnt/β-catenin and modulates the immune cells” (Journal of Experimental & Clinical Cancer Research : CR, 2024):
Where two headings read alike, the source gives them in different places. Peptide text beside a SMILES is read from it.

How the values were obtained:
[1] = test system: A375 cell spheroids (caspase3); experiment: Caspase3 immunofluorescence in 3D spheroids; assay type: cell-based; settings: 3D melanoma cell spheroids (A375 in Fig. S3G legend), 72 h
Description: (§1) Prepared melanoma cells spheroids were plated in 48-well plates. Following incubation for 3 days, the spheroids were exposed to different concentrations (0, 50, 100 and 200 μM) of CY12-RP2, and changes in spheroid diameter were detected after 5 days of treatment. Additionally, melanoma cell spheroids were treated with various concentrations of CY12-RP2 as described previously, and after 72 h, the spheroids were stained for immunofluorescence with caspase 3 primary antibody. The specific experimental procedures refer to the following immunofluorescence analysis. Additionally, we co-cultured peptide-stimulated PBMC with spheroids to determine the tumor-killing ability of activated PBMC.
Transwell assays were performed to quantify the modulatory effects of SKL2001 and IWR1 (C). Statistical analysis was performed to evaluate the invasion of cells (D). The power field scale bar, 100 μm. (E) Western blot assays were also performed on EMT-related proteins to identify the effects of SKL2001 and IWR1. […]
(A) Cell viability of melanoma cell lines (A375, A875) treated with 6 peptides except CY12-RP2 at various concentrations for 48 h. […] (C) SPR assay was performed to quantify […]
melanoma cell lines (A375, A875). […] (G) Immunofluorescence staining was performed to measure the caspase3 fluorescence intensity of A375 cell spheroids after treating with CY12-RP2. […]

A875 cells = assay type: cell-based
Description: (§2) Cell viability was determined using a CCK8 kit. Melanoma cells were plated into 96-well plates at a density of 5 × 10^3 cells/well. The cells were then treated with peptides at the determined concentrations for 24, 48, and 72 h. The CCK-8 (10 μL/ well) was pipetted into each well and the cells were incubated at 37 °C for 1~3 h. The viable cells were calculated by performing absorbance readings at 450 nm using a microplate reader (BioTek).

A375 cells = assay type: cell-based
Description: as §2

A375 cellular spheroid = experiment: 3D spheroid diameter, A375; assay type: cell-based; settings: A375 spheroids; 0, 50, 100, 200 μM, 5 days
Description: A375 and A875 cells were collected and suspended in Matrigel (Corning) with a density of 1.0 × 10^7 cells per mL. 3D spheroids were fabricate using cell-processing system that have two pumps. One pump was loaded with Matrigel and another with fluorocarbon oil (3 M NOVEC, HFE-7000). The flow rate of Matrigel was 20 μL/min and the fluorocarbon oil rate was 30 μL/min. The 3D spheroids were incubated at 37 °C with 5% CO2 after printing. Culturing medium was DMEM medium supplemented with 10% FBS, and 100 IU of penicillin and […] streptomycin. The medium was changed every 3 days. Afterward, the 3D spheroids were harvested for drug analysis.
as §1

Ki67 = Ki67 fluorescence staining of xenograft tumors; assay type: in vivo, BALB/c nude mice; settings: A375 xenograft tumors
Description: Fig. S4: The inhibition of cells metastasis and invasion by CY12-RP2 can be […]
(A, B) The inhibition of CY12-RP2 on the migration capacity of melanoma cell lines was reversed by SKL2001 (A). Statistical analysis was performed to determine the migrated distance (B). The power field scale bar, 100 μm. (C, D) Effect of CY12-RP2 on the invasive ability of melanoma cell lines were reversed by SKL2001 (C).
Statistical analysis was performed to count the invaded cells (D). The power field scale bar, 100 μm. (E) Western blot assay was also performed to detect the proteins related to EMT and Wnt/β-catenin signaling pathway, including N-cadherin, Vimentin, snail, Dvl2, Phospho-β-catenin-S675, β-catenin, Phospho-GSK3β-Ser9 and GSK3β by CY12-RP2 with or without SKL2001 (50 μM). Data are presented as mean ± SD. *p < […]
Fig. S5: Effects and toxicity of CY12-RP2 in vivo
(A) TUNEL analysis of apoptosis was conducted on orthotopic xenografts tumor sections using fluorescence staining. The power field scale bar, 100 μm. (B) Fluorescence staining of Ki67 was carried out on orthotopic xenograft tumor sections.
The power field scale bar, 100 μm. (C) Serum His-CY12-RP2 levels of the orthotopic xenografts mice treated by various dosage of CY12-RP2 were measured by His-ELISA kit. […]
kit. (E) Serum ALT, AST, TG, and γ-GT levels of the orthotopic xenografts model were measured by ELISA. […]

`CC(C)C[C@H](NC(=O)[C@H](Cc1ccc(O)cc1)NC(=O)[C@@H](N)[C@@H](C)O)C(=O)N[C@@H](CS)C(=O)N[C@H](C(=O)N[C@@H](C)C(=O)N[C@@H](CS)C(=O)N[C@@H](CC(=O)O)C(=O)N[C@@H](Cc1ccc(O)cc1)C(=O)N[C@H](C(=O)N[C@@H](Cc1c[nH]cn1)C(=O)N[C@@H](Cc1c[nH]cn1)C(=O)O)[C@@H](C)O)[C@@H](C)O` [CY12-RP2] (H-TYLCTACDYTHH-OH; N-terminus and C-terminus assumed) was tested. Which “level of Caspase3” value [1] did it give?
The value was “significantly increased”.

What about the IC50 (A875 cells; 48 h) of the same compound?
The IC50 was 654 µM.

And the IC50 (A875 cells; 72 h)?
Its IC50 is 117 µM.

What about the “cell growth inhibition (in words)” value (A875 cells; PDPN underexpressed A875, CCK8, various concentrations) of the same compound?
Its value is “relatively diminished impact”.

And the IC50 (A375 cells; 24 h)?
Its IC50 is 602 µM.

What about the IC50 (A375 cells; 48 h) of the same compound?
Its IC50 is 118 µM.

What about the IC50 (A375 cells; 72 h) of the same compound?
The IC50 was 55.2 µM.

What about the “cell growth inhibition (in words)” value (A375 cells; PDPN overexpressed A375, CCK8, various concentrations) of the same compound?
Its value is “dramatically inhibited cell growth in a dose-dependent manner”.

And the relative spheroid diameter (A375 cellular spheroid)?
Its relative spheroid diameter is “significantly diminished with increasing CY12-RP2 concentration”.

And the “level of Ki67” value (Ki67)?
Its value is “significantly decreased”.
